According to PubChem BioAssay AID1963867 (Molecular Pharmacology Branch, DTP, NCI, 2024):

System: KRAS-mutant PDC tumor spheroid with HUVEC/MSC, viability
Assay: Anticancer human tumor 327498-153-R-J2-PDC patient-derived uterine carcinosarcoma cell line growth inhibition [KRAS2]
Conditions: for IC50: curve of first compound; for viability, T/C: stronger effect = lower value
Text: Multicellular complex tumor spheroid response to RAS pathway inhibitors in combination with a targeted agents in patient-derived cell lines with oncogenic KRAS variants from multiple cancer types
A high-throughput screen of multi-cell type tumor spheroids was designed to identify active combinations of targeted small molecules and KRAS pathway inhibitors. Complex spheroids include a stromal component modeled by human endothelial cells (HUVEC) and fibroblasts modeled by human mesenchymal stem cells (MSCs). The concentration ranges selected for each drug and investigational agent were based upon clinically achievable concentrations if the clinical Cmax of the agent was known.
Compounds. The drugs and investigational agents: BI-3406 (NSC825286), BAY-293 (NSC824723), batoprotafib (TNO155; NSC825523), sotorasib (AMG 510; NSC818433), MRTX1257 (NSC819558), elimusertib (BAY 1895344; NSC800525), molibresib (GSK525762; NSC774829), temuterkib (LY3214996; NSC803410), venetoclax (NSC766270), alisertib (NSC759677), olaparib (NSC753686), talazoparib (NSC767125), erdafitinib (NSC781556), ipatasertib (NSC767898), cabozantinib (NSC761068), nintedanib (NSC756659), abemaciclib (NSC768073), docetaxel (NSC628503), trametinib (NSC758246), and sapanisertib (NSC764658) were obtained from the National Cancer Institute (NCI) Developmental Therapeutics Program Chemical Repository. The FDA-approved anticancer drug set is available from the Developmental Therapeutics Program. […] The stock solutions were prepared in dimethyl sulfoxide (DMSO, Sigma-Aldrich, St. Louis, MO, cat. D2650) at 800-fold the tested concentration and stored at -70 degrees C prior to their use. All drugs and investigational agents were tested over a range starting from a high concentration at or near the clinical Cmax and decreasing in half-log increments. If the clinical Cmax for an agent had not been determined, the highest concentration tested was 10 microM.
Cell Culture. All cells were maintained in an incubator at 37 degrees C and 5% CO2 with 95% humidity. The PDC lines were cultured according to standard operating procedures established by the NCI PDMR (https://pdmr.cancer.gov/sops/default.htm). Briefly, all PDCs were thawed and cultured in Matrigel-coated flasks prepared with a working solution of 1X Ham's F-12 nutrient mix, without supplementation (Invitrogen, Waltham, MA, cat. 11765054), 100 U/mL penicillin-streptomycin (Invitrogen, cat. 15140122), and 2.5% Matrigel (Corning Inc., Corning, NY, cat. 354248) for the first three passages. All PDCs were cultured in complete DMEM/F-12 media containing advanced DMEM/F-12 (Invitrogen, cat. 12634028), 4.9% defined fetal bovine serum, heat inactivated (HyClone Laboratories Inc., Logan, UT, cat. SH30070.03HI), 389 ng/mL hydrocortisone (Sigma-Aldrich, cat. H4001), 9.7 ng/mL human EGF recombinant protein (Invitrogen, cat. PHG0313), 23.4 microg/mL adenine (Sigma-Aldrich, cat. A2786), 97.3 U/mL penicillin-streptomycin (Invitrogen, cat. 15140122), 1.9 mM L-glutamine (Invitrogen, cat. 25030081), and 9.7 microM Y-27632 dihydrochloride (Tocris Bioscience, Bristol, United Kingdom, cat. 1254). The PDCs were cultured in complete DMEM/F12 media without 9.7 microM Y-27632 dihydrochloride for at least two passages prior to the screen. The established cell line HOP-62 was cultured in RPMI 1640 medium, HEPES (Invitrogen, cat. 22400105) with 10% defined fetal bovine serum (HyClone Laboratories Inc., cat. SH30070.03) and 2 mM L-glutamine (Invitrogen, cat. 25030081). The pooled donor HUVEC were cultured in endothelial cell growth medium 2 (PromoCell, Heidelberg, Germany, cat. C-22011) and the hMSC were cultured in mesenchymal stem cell growth medium 2 (PromoCell, cat. C-28009). For all experiments, HUVEC and hMSC were used at passages </=5, while the malignant cell lines were used at passages </=15. […]

[1] = second compound 0.1 µM, first compound 0.0316 µM
[2] = second compound 0.1 µM, first compound 0.1 µM
[3] = second compound 0.1 µM, first compound 0.316 µM
[4] = second compound 0.1 µM, first compound 1 µM
[5] = second compound 0.1 µM, first compound 3.16 µM
[6] = second compound 0.1 µM, first compound 10 µM
[7] = second compound 0.316 µM, first compound 0.0316 µM
[8] = second compound 0.316 µM, first compound 0.1 µM
[9] = second compound 0.316 µM, first compound 0.316 µM
[10] = second compound 0.316 µM, first compound 1 µM
[11] = second compound 0.316 µM, first compound 3.16 µM
[12] = second compound 0.316 µM, first compound 10 µM
[13] = second compound 1 µM, first compound 0.0316 µM
[14] = second compound 1 µM, first compound 0.1 µM
[15] = second compound 1 µM, first compound 0.316 µM
[16] = second compound 1 µM, first compound 1 µM
[17] = second compound 1 µM, first compound 3.16 µM
[18] = second compound 1 µM, first compound 10 µM
[19] = second compound 3.16 µM, first compound 0.0316 µM
[20] = second compound 3.16 µM, first compound 0.1 µM
[21] = second compound 3.16 µM, first compound 0.316 µM
[22] = second compound 3.16 µM, first compound 1 µM
[23] = second compound 3.16 µM, first compound 3.16 µM
[24] = second compound 3.16 µM, first compound 10 µM
[25] = second compound 10 µM, first compound 0.0316 µM
[26] = second compound 10 µM, first compound 0.1 µM
[27] = second compound 10 µM, first compound 0.316 µM
[28] = second compound 10 µM, first compound 1 µM
[29] = second compound 10 µM, first compound 3.16 µM
[30] = second compound 10 µM, first compound 10 µM
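Also: spheroids exposed to agents for seven days before reading.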
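For viability, T/C in this document: 100% = DMSO vehicle wells so lower means fewer viable cells.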

COc1cc(Nc2ncc3c(n2)-c2ccc(Cl)cc2C(c2c(F)cccc2OC)=NC3)ccc1C(=O)O + C=CC(=O)N1CCN(c2nc(=O)n(-c3c(C)ccnc3C(C)C)c3nc(-c4c(O)cccc4F)c(F)cc23)C(C)C1
IC50 (second compound 0.1 µM): < 31.6 nM
IC50 (second compound 0.316 µM): < 31.6 nM
IC50 (second compound 1 µM): < 31.6 nM
IC50 (second compound 3.16 µM): < 31.6 nM
IC50 (second compound 10 µM): < 31.6 nM
viability, T/C [1]: 12.1%
viability, T/C [2]: 9.76%
viability, T/C [3]: 10.6%
viability, T/C [4]: 12.4%
viability, T/C [5]: 12.6%
viability, T/C [6]: 9.6%
viability, T/C [7]: 10.1%
viability, T/C [8]: 11.5%
viability, T/C [9]: 11.1%
viability, T/C [10]: 9.91%
viability, T/C [11]: 13.6%
viability, T/C [12]: 10.8%
viability, T/C [13]: 10.6%
viability, T/C [14]: 12%
viability, T/C [15]: 10.6%
viability, T/C [16]: 10.7%
viability, T/C [17]: 12.5%
viability, T/C [18]: 11.3%
viability, T/C [19]: 9.6%
viability, T/C [20]: 11.2%
viability, T/C [21]: 10.2%
viability, T/C [22]: 11.9%
viability, T/C [23]: 12.6%
viability, T/C [24]: 10.9%
viability, T/C [25]: 9.5%
viability, T/C [26]: 13.1%
viability, T/C [27]: 12.6%
viability, T/C [28]: 12.4%
viability, T/C [29]: 15.2%
viability, T/C [30]: 11.9%

COc1cc2nccc(Oc3ccc(NC(=O)C4(C(=O)Nc5ccc(F)cc5)CC4)cc3)c2cc1OC + C=CC(=O)N1CCN(c2nc(=O)n(-c3c(C)ccnc3C(C)C)c3nc(-c4c(O)cccc4F)c(F)cc23)C(C)C1
IC50 (second compound 0.1 µM): 1350 nM
IC50 (second compound 0.316 µM): 1150 nM
IC50 (second compound 1 µM): 1070 nM
IC50 (second compound 3.16 µM): 1030 nM
IC50 (second compound 10 µM): < 31.6 nM
viability, T/C [1]: 55.8%
viability, T/C [2]: 63.5%
viability, T/C [3]: 60.1%
viability, T/C [4]: 59.6%
viability, T/C [5]: 22.6%
viability, T/C [6]: 1.82%
viability, T/C [7]: 56.8%
viability, T/C [8]: 59.5%
viability, T/C [9]: 59.9%
viability, T/C [10]: 54.5%
viability, T/C [11]: 16.5%
viability, T/C [12]: 1.34%
viability, T/C [13]: 49.1%
viability, T/C [14]: 52.4%
viability, T/C [15]: 53.7%
viability, T/C [16]: 54%
viability, T/C [17]: 16%
viability, T/C [18]: 1.1%
viability, T/C [19]: 51.4%
viability, T/C [20]: 49.7%
viability, T/C [21]: 54.8%
viability, T/C [22]: 50.9%
viability, T/C [23]: 15.2%
viability, T/C [24]: 0.82%
viability, T/C [25]: 36%
viability, T/C [26]: 37.5%
viability, T/C [27]: 39.9%
viability, T/C [28]: 34%
viability, T/C [29]: 8.7%
viability, T/C [30]: 0.79%
